One data set deals with human p27Kip1 IRES. Briefly: Dicistronic IRES mRNA reporter assay, p27Kip1 IRES. The class given is cell-based. The settings on record: LN229 cells. The protocol: (§1) Western blot and quantitative RT-PCR analyses were performed as previously described (19). For Western blotting, cells or tissues were lysed in RIPA (lysis) buffer containing protease inhibitor cocktail and phosSTOP phosphatase inhibitor cocktail (Roche) and extracts resolved by SDSPAGE. Proteins were transferred to PVDF membranes and incubated with the indicated antibodies. For IRES reporter assays, the indicated mRNA reporters were cotransfected into cells with pSVβ-galactosidase to normalize for transfection efficiency as described previously (16). Cells were harvested 18 h following transfection and Renilla, firefly and β-galactosidase activities determined using the Dual-Glo Luciferase and β-galactosidase assay systems (Promega).
(§2) (B) Schematic diagrams of the dicistronic constructs used in this study. […] Input and bound fractions were analyzed by immunoblotting using hnRNP A1 antibodies. […] Bound CCND1 or c-MYC RNAs were detected via RT-PCR. […]
(§3) Several dicistronic IRES mRNA reporter constructs were utilized, shown in FIG. 1B, in which the indicated IRES sequences were inserted within the intercistronic region. LN229 cells transiently transfected with these constructs were assayed for Renilla and firefly luciferase activities, which are readouts of cap-dependent and IRES-mediated translation initiation, respectively (16).

Data set [1] concerns IRES from encephalomyocarditis virus. In words: Dicistronic IRES mRNA reporter assay, ECMV IRES. The settings on record: LN229 cells. The class given is cell-based. As for the experimental part: as §1, §2, §3
Data set [2] concerns LN229, LN18, LN428 and SF763 GBM lines. In words: Growth inhibition of GBM cell lines (XTT). The class given is cell-based. As for the experimental part:
Results are expressed as relative fold change in firefly (FF) luciferase activity and the mean and +S.D. are shown for three independent experiments. (B) Growth inhibition of GBM cell lines following 48 h culture in C11. Data represent mean±S.D. of three independent experiments. […] Control cell were treated with DMSO vehicle. Data are means±S.D., n=3. […] Percent apoptotic cells as determined via Annexin V staining are also shown below each graph. One of three experiments with similar results is shown.

The test system is the same in data set [3]. Briefly: Cell-cycle phase distribution and Annexin V apoptosis in four GBM lines. The class given is cell-based. The protocol:
Results are expressed as relative fold change in firefly (FF) luciferase activity and the mean and +S.D. are shown for three independent experiments. […] Data represent mean±S.D. of three independent experiments. […] Control cell were treated with DMSO vehicle. Data are means±S.D., n=3. […] Percent apoptotic cells as determined via Annexin V staining are also shown below each graph.

Data set [4] deals with cyclin D1, c-MYC and actin mRNAs. Briefly: Polysome analysis in LN229 cells. The class given is cell-based.
A further data set has as its system Delta Max splicing. In words: Max exon 5 alternative splicing analysis (RT-PCR). The class given is cell-based. The settings on record: U87 cells stably expressing EGFRvIII. The protocol:
Max exon 5 alternative splicing analysis was performed as described (22). Alternative splicing was assayed using quantitative RT-PCR using primers designed to constitutive exons flanking alternative exons. Primers were: Max (85F) 5′-[…]-3′; MAX(85R) 5′-[…]-3′. Reverse primers were 32P end-labeled and PCR reactions were amplified for 22 cycles and subsequently resolved by denaturing PAGE and imaged.
(B) Schematic diagrams of the dicistronic constructs used in this study. Constructs used are pRF, pRCD1F, which contains the human cyclin D1 IRES, pRmycF, containing the human c-myc IRES, pRp27F, containing the human p27Kip1 IRES and pRECMVF, containing the IRES from encephalomyocarditis virus. (C) Relative Renilla and firefly luciferase activities obtained from LN229 GBM cells transfected with the indicated constructs in the absence or presence of the inhibitor C11. The mean and +SD are shown for three independent experiments. […] (D) RNA-pull down assays utilizing biotinylated cyclin D1 or c-MYC IRES RNAs. Cytoplasmic extracts of LN229 cells treated with C11 (50 nM) as indicated were incubated with biotinylated cyclin D1 or c-MYC IRES RNAs and precipitated with streptavidin-Sepharose beads. Input and bound fractions were analyzed by immunoblotting using hnRNP A1 antibodies. […] Bound CCND1 or c-MYC RNAs were detected via RT-PCR. […]

Data set [5] relates to cyclin D1 and c-MYC protein. In words: Western blot of cyclin D1 and c-MYC protein levels in GBM cell lines. The class given is cell-based. The settings on record: LN229 and SF763 cells, 24 h. As for the experimental part:
as §1
(B) Schematic diagrams of the dicistronic constructs used in this study. Constructs used are pRF, pRCD1F, which contains the human cyclin D1 IRES, pRmycF, containing the human c-myc IRES, pRp27F, containing the human p27Kip1 IRES and pRECMVF, containing the IRES from encephalomyocarditis virus. (C) Relative Renilla and firefly luciferase activities obtained from LN229 GBM cells transfected with the indicated constructs in the absence or presence of the inhibitor C11. […] Input and bound fractions were analyzed by immunoblotting using hnRNP A1 antibodies. […] Bound CCND1 or c-MYC RNAs were detected via RT-PCR. […]

Data set [6] concerns normal mature human neurons. Briefly: In vitro cytotoxicity in human neurons (trypan blue exclusion). Format: cell-based. The arrangement: dose or concentration left out as unconfirmed. As for the experimental part: Within the series B and C analogs, IRES-J008, with a 4-methoxyphenyl substituent in place of the 2,4-dimethoxybenzyl unit, and to a lesser degree, IRES-J009, with an N1-methyluracil unit in place of the dichloromaleimide unit, inhibited cyclin D1 and c-MYC PP242-induced IRES activity. […] The in vitro cytotoxicities of these three analogs relative to C11 in human neurons were also determined. […] The reduced toxicity of the IRES-J007 versus C11 might possible be due to the lack of the quite reactive dichloromaleimide unit present in C11 which is absent in IRES-J007, or may be due to other factors.

The next data set concerns c-MYC mRNA. Briefly: Polysome analysis of xenografted LN229 tumors, c-MYC mRNA.
The next data set relates to actin mRNA. In words: Polysome analysis of xenografted LN229 tumors, actin mRNA. The settings on record: monotherapy.
The next data set concerns cyclin D1 mRNA. Briefly: Polysome analysis of xenografted LN229 tumors, cyclin D1 mRNA.

Experimental for c-MYC mRNA: (§4) Cells were lysed in buffer containing 100 μg/ml cycloheximide at 4° C. Following removal of mitochondria and nuclei, supernatants were layered onto 15-50% sucrose gradients and centrifuged at 38,000 rpm for 2 h at 4° C. in an SW40 rotor (Beckman Instruments). Gradients were fractionated into 11 1-ml fractions using a density gradient fractionator (Brandel Instruments). The profiles of the gradients were monitored at 260 nm, and RNAs from individual fractions were pooled into a nonribosomal/monosomal pool and a polysomal pool. These RNAs (100 ng) were used in real time quantitative RT-PCR analysis for the indicated transcripts.
(§5) Tumor extracts were subjected to sucrose density gradient centrifugation, fractionated and pooled into nonribosomal, monosomal fraction (N, white bars) and a polysomal fraction (P, black bars). Purified RNAs were used in real-time qRT-PCR analysis to determine the distributions of cyclin D1, c-MYC and actin mRNAs across the gradients. […] Means and +S.D. values are shown for quadruplicate RT-PCR measurements. *, P<0.05.
(§6) Polysomes were separated via sucrose density gradient sedimentation and fractionated into heavy polysomal and nonribosomal/monosomal fractions.
Experimental for cyclin D1 mRNA: as §4, §5, §6

For `COc1ccc(CN2C(=O)C(Cl)=C(Cl)C2=O)c(OC)c1` [Compound C11, reference compound], the “IRES-mediated initiation from p27Kip1 IRES” value in the data set on human p27Kip1 IRES was “did not affect”. The “IRES-mediated initiation from ECMV IRES” value in data set [1] is “did not affect”. For the same compound, the “CI (combination index) at ED50 ratio of 1:100” value in data set [2] (C11 at 10 and 100 nM with PP242, 48 h, LN229, LN18, LN428 and SF763) came to 0.5. Besides, in data set [2] (inhibitor alone, concentrations up to 10 μM, 48 h, several GBM lines), the “inhibition of cell growth” value is “No significant inhibition of cell growth”. Besides, in data set [3] (combined with PP242, four GBM lines), the “percentage of cells undergoing apoptosis” value is on record as “further potentiated the percentage of cells undergoing apoptosis”. The G1 arrest entry in [3] (cotreatment with PP242, four GBM lines) is recorded as “markedly stimulated G1 arrest”. Moreover, in data set [4] (50 nM), the “actin mRNA distribution” value is given as “unaffected”; the “polysome distribution of cyclin D1 and c-MYC mRNA” value was “significant shift in both cyclin D1 and c-MYC mRNA to monosomal/nonribosomal fractions”. Moreover, the “cyclin D1 or c-MYC steady-state mRNA levels” value in data set [4] (total monosomal/nonribosomal plus polysomal mRNA) is recorded as “did not appear to alter”. In the data set on Delta Max splicing, the “Delta Max splicing” value was “did not alter”. Besides, the “cyclin D1 and c-MYC protein levels” value in [5] was “markedly reduced”.

For `COc1ccc(CN2C(=O)c3ccccc3C2=O)c(OC)c1` [IRES-J007, 2-((2,4-Dimethoxyphenyl)methyl)isoindoline-1,3-dione], the “cytotoxic effects on normal neurons” value in [6] is reported as “no significant cytotoxic effects”. The “c-MYC mRNA translational efficiency” value with c-MYC mRNA (IRES-J007 monotherapy) is given as “significant reduction”. The “c-MYC mRNA polysomal” value in the data set on c-MYC mRNA (PP242 and IRES-J007 cotherapy) worked out at 3%. Moreover, in the data set with actin mRNA, the “actin mRNA polysomal distribution / translational efficiency” value was “unaffected”. Besides, the “cyclin D1 mRNA translational efficiency” value in the data set on cyclin D1 mRNA (IRES-J007 monotherapy) is reported as “significant reduction”. Further, the “CCND1 mRNA polysomal” value in the data set with cyclin D1 mRNA (PP242 and IRES-J007 cotherapy) is recorded as 5%.

(Values after patent US20210220331A1, “INHIBITORS OF IRES-MEDIATED PROTEIN SYNTHESIS” (The Regents of the University of California, priority 2016, published 2021).)
